# Assay results reported in PubChem BioAssay AID2060906 (Molecular Pharmacology Branch, DTP, NCI, 2025).
# System: 485176-168-R4-J1-PDC complex spheroid growth
# Experiment: Anticancer human tumor 485176-168-R4-J1-PDC patient-derived pancreatic adenocarcinoma cell line growth inhibition [RAS]
# Settings: for IC50: curve of first compound; for viability, T/C: stronger effect = lower value
# Outline: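 Multi-cell-type spheroids: tumor cells plus HUVEC endothelial cells and mesenchymal stem cells. RAS-pathway inhibitors were combined with targeted agents, each dosed in half-log steps down from clinical Cmax, or from 10 microM when Cmax was unknown.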
# [1] = second compound 0.00316 µM, first compound 0.0316 µM
# [2] = second compound 0.00316 µM, first compound 0.1 µM
# [3] = second compound 0.00316 µM, first compound 0.316 µM
# [4] = second compound 0.00316 µM, first compound 1 µM
# [5] = second compound 0.01 µM, first compound 0.0316 µM
# [6] = second compound 0.01 µM, first compound 0.1 µM
# [7] = second compound 0.01 µM, first compound 0.316 µM
# [8] = second compound 0.01 µM, first compound 1 µM
# [9] = second compound 0.0316 µM, first compound 0.0316 µM
# [10] = second compound 0.0316 µM, first compound 0.1 µM
# [11] = second compound 0.0316 µM, first compound 0.316 µM
# [12] = second compound 0.0316 µM, first compound 1 µM
# [13] = second compound 0.1 µM, first compound 0.0316 µM
# [14] = second compound 0.1 µM, first compound 0.1 µM
# [15] = second compound 0.1 µM, first compound 0.316 µM
# [16] = second compound 0.1 µM, first compound 1 µM
# [17] = second compound 0.316 µM, first compound 0.0316 µM
# [18] = second compound 0.316 µM, first compound 0.1 µM
# [19] = second compound 0.316 µM, first compound 0.316 µM
# [20] = second compound 0.316 µM, first compound 1 µM
# [21] = second compound 1 µM, first compound 0.0316 µM
# [22] = second compound 1 µM, first compound 0.1 µM
# [23] = second compound 1 µM, first compound 0.316 µM
# [24] = second compound 1 µM, first compound 1 µM
# [25] = second compound 0.00316 µM, first compound 3.16 µM
# [26] = second compound 0.00316 µM, first compound 10 µM
# [27] = second compound 0.01 µM, first compound 3.16 µM
# [28] = second compound 0.01 µM, first compound 10 µM
# [29] = second compound 0.0316 µM, first compound 3.16 µM
# [30] = second compound 0.0316 µM, first compound 10 µM
# [31] = second compound 0.1 µM, first compound 3.16 µM
# [32] = second compound 0.1 µM, first compound 10 µM
# [33] = second compound 0.316 µM, first compound 3.16 µM
# [34] = second compound 0.316 µM, first compound 10 µM
# [35] = second compound 1 µM, first compound 3.16 µM
# [36] = second compound 1 µM, first compound 10 µM
# 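Further: spheroids exposed to compounds for seven days before readout.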
# 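Wherever viability, T/C is given: luminescence viability expressed relative to DMSO vehicle wells set as 100%.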
smiles,measurement,setting,value
Nc1ccn(C2OC(CO)C(O)C2(F)F)c(=O)n1 (stereo not drawn) + C=CC(=O)N1CCN(c2nc(OCC3CCCN3C)nc3c(F)c(-c4nc(N)cc(C)c4C(F)(F)F)c(Cl)cc23)C(C)C1,IC50,second compound 0.00316 µM,15 nM
same,IC50,second compound 0.01 µM,16.8 nM
same,IC50,second compound 0.0316 µM,17.5 nM
same,IC50,second compound 0.1 µM,17.6 nM
same,IC50,second compound 0.316 µM,13.7 nM
same,IC50,second compound 1 µM,17.5 nM
same,"viability, T/C","second compound 0.00316 µM, first compound 0.00316 µM",89.7%
same,"viability, T/C","second compound 0.00316 µM, first compound 0.01 µM",70.5%
same,"viability, T/C",[1],12.2%
same,"viability, T/C",[2],7.74%
same,"viability, T/C",[3],7.62%
same,"viability, T/C",[4],8.54%
same,"viability, T/C","second compound 0.01 µM, first compound 0.00316 µM",101%
same,"viability, T/C","second compound 0.01 µM, first compound 0.01 µM",81.4%
same,"viability, T/C",[5],11.6%
same,"viability, T/C",[6],8.54%
same,"viability, T/C",[7],7.95%
same,"viability, T/C",[8],11.2%
same,"viability, T/C","second compound 0.0316 µM, first compound 0.00316 µM",84.2%
same,"viability, T/C","second compound 0.0316 µM, first compound 0.01 µM",86%
same,"viability, T/C",[9],13%
same,"viability, T/C",[10],6.18%
same,"viability, T/C",[11],9.67%
same,"viability, T/C",[12],8.77%
same,"viability, T/C","second compound 0.1 µM, first compound 0.00316 µM",96.1%
same,"viability, T/C","second compound 0.1 µM, first compound 0.01 µM",86.2%
same,"viability, T/C",[13],12.4%
same,"viability, T/C",[14],9.42%
same,"viability, T/C",[15],8.72%
same,"viability, T/C",[16],8.42%
same,"viability, T/C","second compound 0.316 µM, first compound 0.00316 µM",98.1%
same,"viability, T/C","second compound 0.316 µM, first compound 0.01 µM",63.7%
same,"viability, T/C",[17],13.7%
same,"viability, T/C",[18],7.48%
same,"viability, T/C",[19],6.75%
same,"viability, T/C",[20],9.71%
same,"viability, T/C","second compound 1 µM, first compound 0.00316 µM",103%
same,"viability, T/C","second compound 1 µM, first compound 0.01 µM",85.2%
same,"viability, T/C",[21],13%
same,"viability, T/C",[22],8.41%
same,"viability, T/C",[23],9.99%
same,"viability, T/C",[24],10.3%
CC(Nc1ccc2c(c1)OCCn1cc(N3C(=O)OCC3C(F)F)nc1-2)C(N)=O (stereo not drawn) + C=CC(=O)N1CCN(c2nc(OCC3CCCN3C)nc3c(F)c(-c4nc(N)cc(C)c4C(F)(F)F)c(Cl)cc23)C(C)C1,IC50,second compound 0.00316 µM,> 10000 nM
same,IC50,second compound 0.01 µM,> 10000 nM
same,IC50,second compound 0.0316 µM,> 10000 nM
same,IC50,second compound 0.1 µM,> 10000 nM
same,IC50,second compound 0.316 µM,> 10000 nM
same,IC50,second compound 1 µM,8190 nM
same,"viability, T/C",[1],91.2%
same,"viability, T/C",[2],83.3%
same,"viability, T/C",[3],64.8%
same,"viability, T/C",[4],69.9%
same,"viability, T/C",[25],58.1%
same,"viability, T/C",[26],52.1%
same,"viability, T/C",[5],90.3%
same,"viability, T/C",[6],98.4%
same,"viability, T/C",[7],88.9%
same,"viability, T/C",[8],73.6%
same,"viability, T/C",[27],77.9%
same,"viability, T/C",[28],59.1%
same,"viability, T/C",[9],102%
same,"viability, T/C",[10],78.5%
same,"viability, T/C",[11],79%
same,"viability, T/C",[12],81.8%
same,"viability, T/C",[29],63.6%
same,"viability, T/C",[30],62.8%
same,"viability, T/C",[13],82.9%
same,"viability, T/C",[14],99%
same,"viability, T/C",[15],63%
same,"viability, T/C",[16],60.2%
same,"viability, T/C",[31],61.8%
same,"viability, T/C",[32],43.6%
same,"viability, T/C",[17],108%
same,"viability, T/C",[18],83%
same,"viability, T/C",[19],81.5%
same,"viability, T/C",[20],69.8%
same,"viability, T/C",[33],75.6%
same,"viability, T/C",[34],57.3%
same,"viability, T/C",[21],85.9%
same,"viability, T/C",[22],85.7%
same,"viability, T/C",[23],69.5%
same,"viability, T/C",[24],76.3%
same,"viability, T/C",[35],55.7%
same,"viability, T/C",[36],48.8%
CC(C)NCC(C(=O)N1CCN(c2ncnc3c2C(C)CC3O)CC1)c1ccc(Cl)cc1 (stereo not drawn) + C=CC(=O)N1CCN(c2nc(OCC3CCCN3C)nc3c(F)c(-c4nc(N)cc(C)c4C(F)(F)F)c(Cl)cc23)C(C)C1,IC50,second compound 0.00316 µM,1690 nM
same,IC50,second compound 0.01 µM,2420 nM
same,IC50,second compound 0.0316 µM,1630 nM
same,IC50,second compound 0.1 µM,1540 nM
same,IC50,second compound 0.316 µM,2370 nM
same,IC50,second compound 1 µM,1340 nM
same,"viability, T/C",[1],93.7%
same,"viability, T/C",[2],97.9%
same,"viability, T/C",[3],78%
same,"viability, T/C",[4],57.4%
same,"viability, T/C",[25],42.8%
same,"viability, T/C",[26],35.3%
same,"viability, T/C",[5],104%
same,"viability, T/C",[6],83.3%
same,"viability, T/C",[7],79%
same,"viability, T/C",[8],62.4%
same,"viability, T/C",[27],43.8%
same,"viability, T/C",[28],34.2%
same,"viability, T/C",[9],101%
same,"viability, T/C",[10],83.5%
same,"viability, T/C",[11],70.7%
same,"viability, T/C",[12],53.2%
same,"viability, T/C",[29],45.3%
same,"viability, T/C",[30],30.5%
same,"viability, T/C",[13],109%
same,"viability, T/C",[14],82.7%
same,"viability, T/C",[15],69.2%
same,"viability, T/C",[16],55%
same,"viability, T/C",[31],45.2%
same,"viability, T/C",[32],29.9%
same,"viability, T/C",[17],106%
same,"viability, T/C",[18],102%
same,"viability, T/C",[19],79.3%
same,"viability, T/C",[20],65.2%
same,"viability, T/C",[33],46.1%
same,"viability, T/C",[34],27.3%
same,"viability, T/C",[21],108%
same,"viability, T/C",[22],93.9%
same,"viability, T/C",[23],79.1%
same,"viability, T/C",[24],50.5%
same,"viability, T/C",[35],41%
same,"viability, T/C",[36],28.9%
CC(=O)OC12COC1CC(O)C1(C)C(=O)C(O)C3=C(C)C(OC(=O)C(O)C(NC(=O)OC(C)(C)C)c4ccccc4)CC(O)(C(OC(=O)c4ccccc4)C21)C3(C)C (stereo not drawn) + CCn1c(-c2cc(N3CCN(C)CC3)cnc2C(C)OC)c2c3cc(ccc31)-c1csc(n1)CC(NC(=O)C1CC1C)C(=O)N1CCCC(N1)C(=O)OCC(C)(C)C2,IC50,second compound 0.000949 µM,< 31.6 nM
same,IC50,second compound 0.003 µM,< 31.6 nM
same,IC50,second compound 0.00949 µM,< 31.6 nM
same,IC50,second compound 0.03 µM,< 31.6 nM
same,IC50,second compound 0.0949 µM,< 31.6 nM
same,IC50,second compound 0.3 µM,< 31.6 nM
same,"viability, T/C","second compound 0.000949 µM, first compound 0.0316 µM",16.7%
same,"viability, T/C","second compound 0.000949 µM, first compound 0.1 µM",15.2%
same,"viability, T/C","second compound 0.000949 µM, first compound 0.316 µM",13.1%
same,"viability, T/C","second compound 0.000949 µM, first compound 1 µM",13.9%
same,"viability, T/C","second compound 0.000949 µM, first compound 3.16 µM",15.6%
same,"viability, T/C","second compound 0.000949 µM, first compound 10 µM",19.6%
same,"viability, T/C","second compound 0.003 µM, first compound 0.0316 µM",14.1%
same,"viability, T/C","second compound 0.003 µM, first compound 0.1 µM",13.2%
same,"viability, T/C","second compound 0.003 µM, first compound 0.316 µM",10.9%
same,"viability, T/C","second compound 0.003 µM, first compound 1 µM",15.5%
same,"viability, T/C","second compound 0.003 µM, first compound 3.16 µM",13.1%
same,"viability, T/C","second compound 0.003 µM, first compound 10 µM",17.9%
same,"viability, T/C","second compound 0.00949 µM, first compound 0.0316 µM",17.2%
same,"viability, T/C","second compound 0.00949 µM, first compound 0.1 µM",12.8%
same,"viability, T/C","second compound 0.00949 µM, first compound 0.316 µM",12.7%
same,"viability, T/C","second compound 0.00949 µM, first compound 1 µM",12.8%
same,"viability, T/C","second compound 0.00949 µM, first compound 3.16 µM",13.2%
same,"viability, T/C","second compound 0.00949 µM, first compound 10 µM",20.1%
same,"viability, T/C","second compound 0.03 µM, first compound 0.0316 µM",12.3%
same,"viability, T/C","second compound 0.03 µM, first compound 0.1 µM",13.4%
same,"viability, T/C","second compound 0.03 µM, first compound 0.316 µM",13.8%
same,"viability, T/C","second compound 0.03 µM, first compound 1 µM",10.8%
same,"viability, T/C","second compound 0.03 µM, first compound 3.16 µM",16.5%
same,"viability, T/C","second compound 0.03 µM, first compound 10 µM",21%
same,"viability, T/C","second compound 0.0949 µM, first compound 0.0316 µM",14.2%
same,"viability, T/C","second compound 0.0949 µM, first compound 0.1 µM",11.9%
same,"viability, T/C","second compound 0.0949 µM, first compound 0.316 µM",11.8%
same,"viability, T/C","second compound 0.0949 µM, first compound 1 µM",9.97%
same,"viability, T/C","second compound 0.0949 µM, first compound 3.16 µM",14.9%
same,"viability, T/C","second compound 0.0949 µM, first compound 10 µM",15.9%
same,"viability, T/C","second compound 0.3 µM, first compound 0.0316 µM",15.5%
same,"viability, T/C","second compound 0.3 µM, first compound 0.1 µM",13.1%
same,"viability, T/C","second compound 0.3 µM, first compound 0.316 µM",9.69%
same,"viability, T/C","second compound 0.3 µM, first compound 1 µM",12.8%
same,"viability, T/C","second compound 0.3 µM, first compound 3.16 µM",15.8%
same,"viability, T/C","second compound 0.3 µM, first compound 10 µM",14.7%
